Source: US20250381179A1, “CHROMAN-BASED COMPOUNDS FOR TREATING CANCER” (priority 2024, published 2025)

Molecular target: T1, human cytochrome P450 CYP2C8 (Homo sapiens, UniProt P10632)
T1 sequence (P10632 1-490): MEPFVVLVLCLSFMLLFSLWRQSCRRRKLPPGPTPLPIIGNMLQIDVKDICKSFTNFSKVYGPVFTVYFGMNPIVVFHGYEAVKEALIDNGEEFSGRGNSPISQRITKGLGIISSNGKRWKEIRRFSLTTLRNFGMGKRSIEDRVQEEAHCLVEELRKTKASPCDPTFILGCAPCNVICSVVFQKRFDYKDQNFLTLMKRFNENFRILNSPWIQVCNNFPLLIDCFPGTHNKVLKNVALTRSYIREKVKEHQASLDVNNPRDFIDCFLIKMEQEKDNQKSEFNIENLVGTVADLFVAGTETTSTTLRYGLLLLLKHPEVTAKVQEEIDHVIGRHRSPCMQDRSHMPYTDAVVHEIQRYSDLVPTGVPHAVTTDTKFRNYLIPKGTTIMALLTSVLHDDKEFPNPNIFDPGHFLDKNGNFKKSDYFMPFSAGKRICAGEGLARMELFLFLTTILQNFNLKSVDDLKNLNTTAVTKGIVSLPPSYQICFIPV
Assay: In vitro metabolism by CYP2C8
Format: in vitro ADME

SMILES: O=C1CC[C@H](N2Cc3cc(N4CCN(CC5CCN(c6ccc([C@@H]7c8ccc(O)cc8OC[C@@H]7c7ccccc7)cc6F)CC5)CC4)ccc3C2=O)C(=O)N1 [compound (1-g), (S)-3-(5-(4-((1-(2-fluoro-4-((3S,4R)-7-hydroxy-3-phenylchroman-4-yl)phenyl)piperidin-4-yl)methyl)piperazin-1-yl)-1-oxoisoindolin-2-yl)piperidine-2,6-dione]
- metabolism by CYP2C8: weakly metabolized
